From ChEMBL document CHEMBL1201862, “PubChem BioAssay data set” (2004) come the findings set out here.

Molecules are shown by their SMILES.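 1) Cells in 96-well plates. 2) Compound, 48 h, 5 concentrations. 3) Linear interpolation between surrounding doses. 4) Unreached endpoint = highest concentration. The concentration for 50% growth inhibition is given as GI50.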 Activity calls are given as the source filed them. No stated cut-off is given here; in the data, active = GI50 up to about 1.1 µM and inactive = higher.

Experiment in all cases: NCI-60 cell line screen, 48 h
In assay [1] the test system is 786-0.
Assay [2] concerns BT-549.
Assay [3] relates to CAKI-1.
In assay [4] the test system is CCRF-CEM.
In assay [5] the test system is IGROV-1.
The test system of assay [6] is K562.
Assay [7] deals with KM12.
Assay [8] concerns M14.
Assay [9] deals with MDA-N.
Assay [10] has as its system NCI-H460.
The test system of assay [11] is NCI-H522.
Assay [12] deals with OVCAR-5.
In assay [13] the test system is RPMI-8226.
Assay [14] concerns RXF 393.
Assay [15] has as its system SF-268.
Assay [16] deals with SF-539.
In assay [17] the test system is SK-MEL-2.
Assay [18] deals with TK-10.
Assay [19] relates to T47D.

In the case of `CN1Cc2cc3cc4c(cc3nc2N(C)C1)OCCO4`, the GI50 in [1], in assay [2], in assay [3], in assay [4], in assay [5] and in assay [6] was > 100 µM (inactive) throughout. Besides, the GI50 in assay [7], in assay [8], in assay [9], in [10], in assay [11] and in assay [12] was > 100 µM (inactive) throughout. Also, the GI50 is 54.7 µM (inactive) in [13]; > 100 µM (inactive) in [14]; > 100 µM (inactive) in assay [15]; > 100 µM (inactive) in assay [16]; > 100 µM (inactive) in assay [17]; > 100 µM (inactive) in [18].

For `COc1ccc(OC2OC(CO)C(O)C(O)C2O)cc1` (centres undefined), the GI50 in [1], in assay [2], in [3], in assay [4], in assay [5] and in assay [6] was > 100 µM (inactive) each time. Moreover, the GI50 in assay [7], in assay [8], in [9], in [10], in assay [11] and in [12] was > 100 µM (inactive) in each case. The GI50 in assay [13], in assay [15], in assay [16], in assay [17], in [19] and in [18] was > 100 µM (inactive) each time.

Take `CCCCCCCCCCCCCCCC(=O)OCC1CCCN2CCCCC12` (centres undefined): the GI50 in [1], in assay [2], in [3], in assay [4], in [6] and in assay [7] was > 100 µM (inactive) in each case. Besides, the GI50 in [8], in assay [9], in assay [10], in assay [12], in [13] and in assay [14] was > 100 µM (inactive) throughout. Besides, the GI50 in assay [15], in assay [16], in assay [17] and in assay [18] was > 100 µM (inactive) in each case.

With `Cc1ccc(S(=O)(=O)Nn2c(-c3ccccc3)c(C#N)c(-c3ccc(Cl)cc3)c(C#N)c2=O)cc1`, the GI50 in assay [1] is 6.79 µM (inactive); in [2], 18.5 µM (inactive); in assay [3], 55.7 µM (inactive); in assay [4] it was 20.4 µM (inactive); in [6], 33.7 µM (inactive); in [8], 18.4 µM (inactive). Besides, the GI50 in assay [9] is 28.4 µM (inactive); in [10] it was 27.9 µM (inactive); in [12], 47 µM (inactive); in assay [13], 14 µM (inactive); in [14], 25.2 µM (inactive); in [16] it was 21.1 µM (inactive). In addition, the GI50 in [17] is 20.2 µM (inactive); in [18], 38 µM (inactive).

`C=C1CCCC(C)(C)[C@H]1C/C=C1\CCOC1=O`: the GI50 was 14.7 µM (inactive) in assay [1]; 14 µM (inactive) in [2]; 16.6 µM (inactive) in assay [3]; 21.6 µM (inactive) in assay [4]; 14.2 µM (inactive) in assay [5]; 11.9 µM (inactive) in assay [6]. In addition, the GI50 in assay [7] was 17.9 µM (inactive); in assay [8], 17.5 µM (inactive); in assay [9] it was 17.9 µM (inactive); in assay [10], 11.8 µM (inactive); in [11] it was 18 µM (inactive); in assay [13], 6.62 µM (inactive). In addition, the GI50 is 9.04 µM (inactive) in assay [15]; 17.2 µM (inactive) in [16]; 63.7 µM (inactive) in assay [17]; 54.2 µM (inactive) in [19]; 19.5 µM (inactive) in assay [18].

With `CC1C2(C)OC(=N)C(C#N)(C(c3ccco3)O2)C1(C#N)C#N` (centres undefined), the GI50 in assay [1] was 20.8 µM (inactive); in [2], 35.2 µM (inactive); in assay [3] it was 14.4 µM (inactive); in assay [4], 23.6 µM (inactive); in assay [5] it was 58.9 µM (inactive); in [6], 34.9 µM (inactive). Besides, the GI50 in assay [7] is 59.8 µM (inactive); in [8], 19.1 µM (inactive); in [9], 19.8 µM (inactive); in assay [10], 19.3 µM (inactive); in assay [12], 29.7 µM (inactive); in assay [14] it was 22.6 µM (inactive). Also, the GI50 in assay [15] is 29 µM (inactive); in assay [16], 19.5 µM (inactive); in assay [17], 29.4 µM (inactive); in assay [19], 17.8 µM (inactive); in assay [18], 37.9 µM (inactive).

For `Cc1c(C(=O)O)c2cc3ccccc3cc2c(=O)n1C`, the GI50 in [1], in assay [2], in [5], in assay [7], in assay [8] and in [9] was > 10 µM (inactive) each time. The GI50 in assay [10], in assay [11], in [12], in assay [14], in [15] and in assay [16] was > 10 µM (inactive) in each case. Besides, the GI50 in assay [17], in assay [19] and in [18] was > 10 µM (inactive) in each case.

As for `CCCCc1ccc(NC(=N)N)cc1`, the GI50 in [1] was 17.7 µM (inactive); in assay [2] it was 24.8 µM (inactive); in assay [3], 28.4 µM (inactive); in assay [4] it was 16.9 µM (inactive); in assay [5] it was 21.7 µM (inactive); in [6], 12.6 µM (inactive). Moreover, the GI50 was 18.9 µM (inactive) in assay [7]; 24.2 µM (inactive) in assay [8]; 27.7 µM (inactive) in [9]; 20.2 µM (inactive) in assay [10]; 28.1 µM (inactive) in [11]; 50.6 µM (inactive) in assay [12]. In addition, the GI50 was 17 µM (inactive) in assay [13]; 40.2 µM (inactive) in assay [15]; > 10 µM (inactive) in assay [16]; 47.6 µM (inactive) in [17]; 31.6 µM (inactive) in assay [19]; 22.1 µM (inactive) in assay [18].

`O/N=N/c1ccc(-c2ccccc2)cn1`: the GI50 was 6.38 µM (inactive) in assay [1]; 30.7 µM (inactive) in assay [2]; 4.55 µM (inactive) in assay [3]; 2.2 µM (inactive) in assay [4]; 27.7 µM (inactive) in assay [5]; 19.6 µM (inactive) in assay [6]. The GI50 in assay [7] is 33.9 µM (inactive); in assay [8], 9.08 µM (inactive); in assay [10], 6.25 µM (inactive); in [11] it was 18.8 µM (inactive); in [12], 20.3 µM (inactive); in assay [13] it was < 0.01 µM (active). Besides, the GI50 in assay [14] was 1.38 µM (inactive); in [15], 4.59 µM (inactive); in assay [16], 17.4 µM (inactive); in assay [17], 31.6 µM (inactive); in assay [19] it was 8.18 µM (inactive); in [18], 22.3 µM (inactive).

As to `O=S(=O)(c1ccccc1)c1ccc(/N=N/O)nc1`, the GI50 in assay [1] was > 100 µM (inactive); in assay [2], > 100 µM (inactive); in assay [3], > 100 µM (inactive); in [4] it was 59.4 µM (inactive); in assay [5], > 100 µM (inactive); in assay [6], > 100 µM (inactive). Moreover, the GI50 in assay [7], in assay [8], in [9], in assay [10], in assay [11] and in assay [12] was > 100 µM (inactive) throughout. Moreover, the GI50 in assay [15], in assay [16], in [17], in assay [19] and in [18] was > 100 µM (inactive) throughout.

For `CC(=O)C1C(=O)C(=O)N(c2cccc(C)c2C)C1=O` (centres undefined), the GI50 in assay [1], in assay [2], in assay [3], in [5], in [7] and in assay [8] was > 100 µM (inactive) in each case. Also, the GI50 in assay [9], in assay [12], in [16], in assay [17], in assay [19] and in assay [18] was > 100 µM (inactive) each time.

Turning to `COc1cc(COC(=O)N(C)[C@@H](Cc2ccccc2)C(=O)O)c([N+](=O)[O-])cc1OC`, the GI50 in assay [1], in [2], in assay [4], in assay [5], in assay [6] and in [7] was > 100 µM (inactive) in each case. Further, the GI50 in assay [8], in assay [9], in assay [10], in assay [12], in assay [13] and in assay [15] was > 100 µM (inactive) throughout. Also, the GI50 in assay [16] and in [19] was > 100 µM (inactive) throughout.
